According to US20130337028A1, “BIOMIMETIC PEPTIDES FOR BONE AUGMENTATION” (NANOVIS, INC., priority 2010, published 2013):

Columns and labels:
[1] = system: critical sized bone defect; test: Critical sized bone defect model, proximal tibia and distal femur; assay type: in vivo, Sinclair minipigs; settings: with nPLGA and HRN based scaffolds, 4 and 8 weeks, FIG. 6
Protocol: A critical sized bone defect model was used in the proximal tibia and distal femur of 12 Sinclair minipigs (Sinclair Research, MO). Time points to be evaluated are 4 weeks and 8 weeks. Four surgical defects (2 tibia and 2 femur) were created on day 0 in all pigs in one limb and on day 28 in all pigs in the opposite limb. Treatments were applied according to predetermined treatment allocations. MRI evaluations of defects were performed at 4 weeks (all limbs) and 8 weeks (initial defects created on day 0). Following euthanasia, defects were evaluated using microCT and histology to measure bone volume fraction within the defects and with mechanical testing to evaluate compressive stiffness and integration with surrounding bone.
Minipigs were given pre-operative analgesic and antimicrobial drugs immediately prior to anesthesia. Pigs were anesthetized in the Clinical Discovery Laboratory (CDL) using standard swine protocols. One stifle region was aseptically prepared and draped routinely for surgery of the proximal tibia and distal femur. Defects were created in epiphyseal/metaphyseal cancellous bone using an 8 mm drill to a depth of 20 mm. The procedure was repeated in the opposite hind limb at 4 weeks. (Confirmation of the critical defect size in minipigs is to be determined.)
Minipigs were housed in the animal holding facility room 1094 and monitored post-operatively. […]

[2] = system: Human fetal osteoblasts (hFOB, CRL-11372, ATCC); test: Osteoblast proliferation testing (osteoblast density); assay type: cell-based; settings: after day 3, seeded at 2500 cells/cm^2, FIG. 2
Protocol: (§1) Human fetal osteoblasts (hFOB, CRL-11372, ATCC) of population numbers 7-11 were cultured in Dulbecco's Modified Eagle's Medium (DMEM, GIBCO) supplemented with 10% fetal bovine serum (FBS, Hyclone) and 1% penicillin/streptomycin (P/S, Hyclone) under standard cell culture conditions (that is, a humidified, 5% CO2/95% air environment at 37° C.). Osteoblasts were seeded onto the petri-dish at a density of 3500 cells/cm^2 and were cultured under standard cell culture conditions for 4 h with peptide concentration discussed. After the prescribed time period, non-adherent cells were removed by sequential phosphate buffered saline (PBS) washings. The remaining cells were fixed using 10% normal buffered formaldehyde (Fisher Scientific) for 10 min and 0.1% Triton X-100 (Sigma-Aldrich) for 5 min. Adherent cells were counted in five random fields per substrate under a Zeiss Axiovert 200M fluorescence microscope. Experiments were run in triplicate and repeated three separate times for each substrate.
For osteoblast proliferation studies, similar to the above procedures, osteoblasts were seeded on petri dish at 2500 cells/cm^2 with peptides and cultured for 1, 3 days. After the prescribed time periods, adherent cells were fixed, stained and counted under the fluorescence microscope as described above. All cellular experiments were run in triplicate and repeated at least three times for each substrate.

osteoblasts [3] = test: Cell function tests, overall osteoblast function; assay type: cell-based, human; settings: summary of total protein, ALP and calcium tests
Protocol: (§2) Total intracellular protein content of osteoblasts is extremely important since it is the indication of healthy growth and normal cell response. Thus, the amount of protein produced by cells were measured up to 3 weeks of culture after providing complete media. In order to release the intracellular protein, the adhered cells on the substrates were lysed in DI water using a standard four cycle freeze-thaw method. The resulting lysate solution was then used for analysis. The total protein content were determined by a BCA (bicinchoninic acid) assay kit (Pierce) and the absorbance of the solution were measured using a spectrophotometer at a wavelength of 570 nm. The absorbance was then converted to protein content using an albumin standard curve to determine the amount of intracellular protein.
(§3) The resulting lysate solution obtained by a four cycle freeze-thaw method was used to measure the ALP activity using a colorimetric assay (Teco). The absorbance of the solution was measured using a spectrophotometer at a wavelength of 590 nm. The absorbance was converted to concentration using ALP standard and all the data were normalized with total protein content to account for changes in number of cells present on surface.
The calcium content was measured up to 3 weeks in culture using a colorimetric assay (Teco) (see FIG. 4). […]

[4] = system: Human fetal osteoblasts (hFOB, CRL-11372, ATCC); test: Cell adhesion testing; assay type: cell-based; settings: 4 h culture, seeded at 3500 cells/cm^2
Protocol: as §1

osteoblasts [5] = test: Total intracellular protein content of osteoblasts (BCA assay); assay type: cell-based, human; settings: after 7 and 14 days, FIG. 5
Protocol: as §2

osteoblasts [6] = test: Alkaline phosphatase activity of osteoblasts (colorimetric assay); assay type: cell-based, human; settings: up to 3 weeks, normalized with total protein content, FIG. 3
Protocol: as §3

osteoblasts [7] = test: Calcium content / calcium deposition by osteoblasts (colorimetric assay); assay type: cell-based, human; settings: after 21 days, normalized with total protein content
Protocol: The calcium content was measured up to 3 weeks in culture using a colorimetric assay (Teco) (see FIG. 4). After all the lysate was aspirated, the surfaces were soaked overnight in 6 N HCl solution to dissolve the deposited calcium. The calcium solution was then reacted with assay reagents and the absorbance of the solution was measured photometrically at 570 nm. The absorbance was then converted to concentration using calcium standards and all the data were normalized with total protein content to account for changes in the number of cells present on surface.

alkaline phosphatase activity (osteoblasts [6])	Substance	new bone growth (histology) [1]	osteoblast density / attachment on peptide coated surfaces [2]	osteoblast function (overall) (osteoblasts [3])	osteoblast adhesion to substrates [4]	total proteins synthesized by osteoblasts (osteoblasts [5])	calcium deposition (osteoblasts [7])
	KRSR (Ac-KRSR-NH2) [reference compound]	showed new bone growth	increased osteoblast attachment compared to other peptides studied	showed increased osteoblast function	proved to be crucial for maximal osteoblast adhesion to substrates		
superiority	KRSRSNVILKKYRN (Ac-KRSRSNVILKKYRN-NH2)	showed new bone growth	increased osteoblast attachment compared to other peptides studied	showed increased osteoblast function		showed the highest value compared to other peptides and the control	showed highest value compared to other materials studied
	SNVILKKYRN		increased osteoblast attachment compared to other peptides studied				
